The record followed here is patent EP4603105A1, “PHARMACEUTICAL COMPOSITION CONTAINING CYCLIC COMPOUND HAVING SELECTIVE KRAS INHIBITORY EFFECT AGAINST HRAS AND NRAS” (CHUGAI SEIYAKU KABUSHIKI KAISHA, priority 2022, dated 2024).

One test deals with HRAS wild-type protein (Homo sapiens, UniProt P01112). As to the kind of experiment: Binding to HRAS by surface plasmon resonance (SPR), KD and KD ratio to KRAS. The method in brief:
(§1)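 Measured at 30°C: SPR with GDP-loaded, E. coli-expressed biotin-Avi RAS captured (~100–300 RU), ascending 75 s compound injections, HBS pH 7.4 with GDP, MgCl2, 4% DMSO. KD from 1:1 fit.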

For test [1], the target named is GDP-bound NRAS wild-type protein (Homo sapiens, UniProt P01111). Put plainly: Binding to NRAS by surface plasmon resonance (SPR), KD and KD ratio to KRAS. The method in brief:
as §1

In test [2] the test system is human lung cancer strain NCI-H441. The class given is cell-based. The method in brief:
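Signal came from […] measured per well once the reagent was added. Beforehand, cells were cultured at 37°C and 5% carbon dioxide on a compound series serially diluted in dimethyl sulfoxide.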

[3] abbreviates: ratio of KD for HRAS wild-type protein to KD for KRAS.
Setting [4] is: ratio of KD for GDP-bound NRAS wild-type protein to KD for KRAS.
The mark [5] stands for this setting: ratio of the KD value with respect to HRAS wild-type protein to the KD value with respect to KRAS.
The mark [6] stands for this setting: ratio of the KD value with respect to GDP-bound NRAS wild-type protein to the KD value with respect to KRAS.

SMILES strings stand for the structures. Where a SMILES comes first, the peptide text is derived from it. Bridges are numbered along the chain shown (N, C = ends). [ ]: non-standard residue; d: D form. The star is where a group is joined. hPhe(3-Cl-4-CF3) = N[C@@H](CCc1ccc(C(F)(F)F)c(Cl)c1)C(=O)O; NPrPhe(4-CF3) = CCCN[C@@H](Cc1ccc(C(F)(F)F)cc1)C(=O)O; NMePhe(4-Me) = CN[C@@H](Cc1ccc(C)cc1)C(=O)O; NMeGly(cPent) = CN[C@H](C(=O)O)C1CCCC1; Pro(4,4-F2) = O=C(O)[C@@H]1CC(F)(F)CN1; NMeD = CN[C@@H](CC(=O)O)C(=O)O; NMeL = CN[C@@H](CC(C)C)C(=O)O; NMeAbu = CC[C@H](NC)C(=O)O; Pip = O=C(O)[C@@H]1CCCCN1; Morpholide = C1CN(*)CCO1; NMeA = CN[C@@H](C)C(=O)O; Ac5c = NC1(C(=O)O)CCCC1; Aze = O=C(O)[C@@H]1CCN1; Ac4c = NC1(C(=O)O)CCC1; NEtG = CCNCC(=O)O; Sar = CNCC(=O)O

Chain of GDP-bound NRAS wild-type protein (P01111 whole entry): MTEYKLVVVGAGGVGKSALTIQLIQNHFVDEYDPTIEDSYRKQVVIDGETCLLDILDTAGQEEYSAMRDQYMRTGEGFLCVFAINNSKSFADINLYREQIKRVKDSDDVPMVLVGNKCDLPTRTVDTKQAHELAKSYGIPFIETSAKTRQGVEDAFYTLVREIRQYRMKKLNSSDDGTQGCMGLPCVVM
Chain of HRAS wild-type protein (P01112 whole entry): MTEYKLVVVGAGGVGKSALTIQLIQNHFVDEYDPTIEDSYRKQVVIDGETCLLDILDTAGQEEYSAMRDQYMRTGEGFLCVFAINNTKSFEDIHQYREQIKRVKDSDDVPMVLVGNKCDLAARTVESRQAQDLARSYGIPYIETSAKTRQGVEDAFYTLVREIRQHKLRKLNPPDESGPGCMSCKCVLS

Consider `CCC[C@H]1C(=O)N[C@@H]([C@@H](C)CC)C(=O)N(C)CC(=O)N(C)[C@H]2C/C=C\CCN(C2=O)[C@@H](Cc2ccc(C(F)(F)F)cc2)C(=O)N(C)CC(=O)N[C@@H](CCc2cc(F)c(C(F)(F)F)c(F)c2)C(=O)N2C[C@H](OCC)C[C@H]2C(=O)NC2(CC(C)(C)C2)C(=O)N(C)[C@@H](C2CCCC2)C(=O)N(C)[C@H](C(=O)N(C)C)CC(=O)N1C` [PP1645], for which the “HRAS /KRAS” value at HRAS wild-type protein (ratio of KD value for HRAS wild-type protein to KD value for KRAS (SPR)) is “A (a compound having 10 or more and less than 20 is denoted as A)”. In test [1] (ratio of KD value for GDP-bound NRAS wild-type protein to KD value for KRAS (SPR)), the “NRAS /KRAS” value is “A (a compound having 10 or more and less than 20 is denoted as A)”. Besides, the half-maximal inhibitory concentration (IC50) in test [2] is 1.8 nM.

With `CCCN1C(=O)CN(C)C(=O)[C@@H]2CCN2C(=O)[C@H]([C@@H](C)CC)NC(=O)[C@H](CC(C)C)N(C)C(=O)C[C@@H](C(=O)N2CCOCC2)N(C)C(=O)[C@H](C2CCCC2)N(C)C(=O)C2(CCCC2)NC(=O)[C@@H]2CCCCN2C(=O)[C@H](CCc2ccc(C(F)(F)F)c(Cl)c2)NC(=O)CN(C)C(=O)[C@@H]1Cc1ccc(C(F)(F)F)cc1` [PP0311] ([NMeL]I[Aze][Sar][NPrPhe(4-CF3)][Sar][hPhe(3-Cl-4-CF3)][Pip][Ac5c][NMeGly(cPent)][NMeD]-Morpholide; lactam N-11), the “HRAS /KRAS” value at HRAS wild-type protein (setting [3]) is “B (a compound having 3 or more and less than 10 is denoted as B)”. Also, in test [1] (setting [4]), the “NRAS /KRAS” value is “B (a compound having 3 or more and less than 10 is denoted as B)”. This compound showed an IC50 in test [2] of 147 nM.

Regarding `CC[C@H](C)[C@@H]1NC(=O)[C@H](CC(C)C)N(C)C(=O)C[C@@H](C(=O)N2CCOCC2)N(C)C(=O)[C@H](C2CCCC2)N(C)C(=O)C2(CCCC2)NC(=O)[C@@H]2CCCN2C(=O)[C@H](CCc2ccc(C(F)(F)F)c(Cl)c2)NC(=O)CN(C)C(=O)[C@H](Cc2ccc(C)cc2)N(C)C(=O)CN(CC)C(=O)CN(C)C1=O` [PP0019] ([NMeL]I[Sar][NEtG][NMePhe(4-Me)][Sar][hPhe(3-Cl-4-CF3)]P[Ac5c][NMeGly(cPent)][NMeD]-Morpholide; lactam N-11), the “HRAS /KRAS” value at HRAS wild-type protein (setting [3]) is “C (A compound having a KD ratio of 0.1 or more and less than 3 is denoted as C)”. For the same compound, the “NRAS /KRAS” value in test [1] (setting [4]) was “C (A compound having a KD ratio of 0.1 or more and less than 3 is denoted as C)”. Besides, in test [2], the IC50 came to 6.7 nM.

As for `CCCN1C(=O)[C@@H]2CCN2C(=O)[C@H](C)N(C)C(=O)[C@H]([C@@H](C)CC)NC(=O)[C@H](CC)N(C)C(=O)C[C@@H](C(=O)N2CCOCC2)N(C)C(=O)[C@H](C2CCCC2)N(C)C(=O)C2(CCCC2)NC(=O)[C@@H]2CC(F)(F)CN2C(=O)[C@H](CCc2ccc(C(F)(F)F)c(Cl)c2)NC(=O)CN(C)C(=O)[C@@H]1Cc1ccc(C(F)(F)F)cc1` [PP0206] ([NMeAbu]I[NMeA][Aze][NPrPhe(4-CF3)][Sar][hPhe(3-Cl-4-CF3)][Pro(4,4-F2)][Ac5c][NMeGly(cPent)][NMeD]-Morpholide; lactam N-11), the “HRAS /KRAS” value on HRAS wild-type protein (setting [3]) is “B (a compound having 3 or more and less than 10 is denoted as B)”. Further, in test [1] (setting [4]), the “NRAS /KRAS” value was “C (A compound having a KD ratio of 0.1 or more and less than 3 is denoted as C)”. This compound registered an IC50 in test [2] of 2.2 nM.

With `CC[C@H](C)[C@@H]1NC(=O)[C@H](CC(C)C)N(C)C(=O)C[C@@H](C(=O)N2CCCC2)N(C)C(=O)[C@H](C2CCCC2)N(C)C(=O)C2(CCCC2)NC(=O)[C@@H]2CCCN2C(=O)[C@H](CCc2cc(F)c(C(F)(F)F)c(F)c2)NC(=O)CN(C)C(=O)[C@H](Cc2ccc(C(F)(F)F)cc2)N2CCCCC[C@@H](C2=O)N(C)C(=O)CN(C)C1=O` [PP0509], the “HRAS /KRAS” value on HRAS wild-type protein (setting [5]) was “B (a compound having 3 or more and less than 10 is denoted as B)”. Moreover, the “NRAS /KRAS” value in test [1] (setting [6]) was “B (a compound having 3 or more and less than 10 is denoted as B)”. Further, in test [2], the IC50 was determined as 109 nM.

For `CCO[C@@H]1C[C@H]2C(=O)NC3(CCC3)C(=O)N(C)[C@@H](C3CCCC3)C(=O)N(C)[C@H](C(=O)N(C)CCOC)CC(=O)N(C)[C@@H](CC)C(=O)N[C@@H]([C@@H](C)CC)C(=O)N(C)CC(=O)N(C)[C@H]3C/C=C\CCN(C3=O)[C@@H](Cc3ccc(C(F)(F)F)cc3)C(=O)N(C)CC(=O)N[C@@H](CCc3ccc(C(F)(F)F)c(OC)c3)C(=O)N2C1` [PP1321], the “HRAS /KRAS” value on HRAS wild-type protein (ratio of KD with respect to HRAS wild-type protein to KD with respect to KRAS) was “B (a compound having 3 or more and less than 10 is denoted as B)”. In test [1] (ratio of KD with respect to GDP-bound NRAS wild-type protein to KD with respect to KRAS), the “NRAS /KRAS” value is “A (a compound having 10 or more and less than 20 is denoted as A)”. The compound also yielded an IC50 in test [2] of 13.9 nM.

In the case of `CCCN1C(=O)CN(C)C(=O)CNC(=O)[C@H]([C@@H](C)CC)NC(=O)[C@H](CC(C)C)N(C)C(=O)C[C@@H](C(=O)N(C)C)NC(=O)[C@H](C2CCCC2)N(C)C(=O)C2(CCCC2)NC(=O)[C@@H]2CC(F)(F)CN2C(=O)[C@H](CCc2ccc(C(F)(F)F)c(Cl)c2)NC(=O)CN(C)C(=O)[C@@H]1Cc1ccc(C(F)(F)F)cc1` [PP0363] ([NMeL]IG[Sar][NPrPhe(4-CF3)][Sar][hPhe(3-Cl-4-CF3)][Pro(4,4-F2)][Ac5c][NMeGly(cPent)]D-NMe2; lactam N-11), the “HRAS /KRAS” value on HRAS wild-type protein (setting [3]) was “C (A compound having a KD ratio of 0.1 or more and less than 3 is denoted as C)”. The “NRAS /KRAS” value in test [1] (setting [4]) was “B (a compound having 3 or more and less than 10 is denoted as B)”. Moreover, the 50% inhibitory concentration (IC50) in test [2] came out at 91.4 nM.

Consider `CCCN1C(=O)CN(C)C(=O)CN(CC)C(=O)[C@H]([C@@H](C)CC)NC(=O)[C@H](CC(C)C)N(C)C(=O)C[C@@H](C(=O)N2CCOCC2)N(C)C(=O)[C@H](C2CCCC2)N(C)C(=O)C2(CCC2)NC(=O)[C@@H]2CC(F)(F)CN2C(=O)[C@H](CCc2ccc(C(F)(F)F)c(Cl)c2)NC(=O)CN(C)C(=O)[C@@H]1Cc1ccc(C(F)(F)F)cc1` [PP0400] ([NMeL]I[NEtG][Sar][NPrPhe(4-CF3)][Sar][hPhe(3-Cl-4-CF3)][Pro(4,4-F2)][Ac4c][NMeGly(cPent)][NMeD]-Morpholide; lactam N-11), for which the “HRAS /KRAS” value at HRAS wild-type protein (setting [5]) was “B (a compound having 3 or more and less than 10 is denoted as B)”. The “NRAS /KRAS” value in test [1] (setting [6]) was “B (a compound having 3 or more and less than 10 is denoted as B)”. In test [2], this compound had a half-maximal inhibitory concentration (IC50) of 7.8 nM.

`CCO[C@@H]1C[C@H]2C(=O)NC3(CC(C)(C)C3)C(=O)N(C)[C@@H](C(CC)CC)C(=O)N(C)[C@H](C(=O)N(C)C)CC(=O)N(C)[C@@H](CC(C)C)C(=O)N[C@@H]([C@@H](C)CC)C(=O)N(C)CC(=O)N(C)[C@H]3C/C=C\CCN(C3=O)[C@@H](Cc3ccc(C(F)(F)F)cc3)C(=O)N(C)CC(=O)N[C@@H](CCc3ccc(C(F)(F)F)c(OC)c3)C(=O)N2C1` [PP2161]: the “HRAS /KRAS” value at HRAS wild-type protein (setting [5]) was “A (a compound having 10 or more and less than 20 is denoted as A)”. Further, the “NRAS /KRAS” value in test [1] (setting [6]) was “AA (a compound having 20 or more is denoted as AA)”. The IC50 in test [2] was found to be 12.4 nM.

As for `CC[C@H](C)[C@@H]1NC(=O)[C@H](CC(C)C)N(C)C(=O)C[C@@H](C(=O)N(C)C)N(C)C(=O)[C@H](C2CCCC2)N(C)C(=O)C2(CCCC2)NC(=O)[C@@H]2CCCN2C(=O)[C@H](CCc2ccc(C(F)(F)F)c(Cl)c2)NC(=O)CN(C)C(=O)[C@H](Cc2ccc(C(F)(F)F)cc2)N2CC/C=C\COC[C@@H](C2=O)N(C)C(=O)CN(C)C1=O` [PP0622], the “HRAS /KRAS” value at HRAS wild-type protein (setting [5]) was “B (a compound having 3 or more and less than 10 is denoted as B)”. Moreover, in test [1] (setting [6]), the “NRAS /KRAS” value is “B (a compound having 3 or more and less than 10 is denoted as B)”. In test [2], this compound yielded an IC50 of 330 nM.
